Read-outs that look alike come from different tables or passages of the source. *1 amine or outer side, *2 acyl side, *3 side chain or, on linkers, in order; H or OH if unused. Where a SMILES comes first, the peptide text is derived from it. Bridges are numbered along the chain shown (N, C = ends). [ ]: non-standard residue; d: D form. The star is where a group is joined. hPhe(3-Cl-4-CF3) = N[C@@H](CCc1ccc(C(F)(F)F)c(Cl)c1)C(=O)O; NPrPhe(4-CF3) = CCCN[C@@H](Cc1ccc(C(F)(F)F)cc1)C(=O)O; X30 = C=CCCN([C@@H](Cc1ccc(C)cc1)C(=O)[*:2])[*:1]; NMeGly(cPent) = CN[C@H](C(=O)O)C1CCCC1; NMeAllylGly = C=CC[C@H](NC)C(=O)O; Hyp = O=C(O)[C@@H]1C[C@@H](O)CN1; NMeD = CN[C@@H](CC(=O)O)C(=O)O; NMeL = CN[C@@H](CC(C)C)C(=O)O; Morpholide = C1CN(*)CCO1; Ac5c = NC1(C(=O)O)CCCC1; Aze = O=C(O)[C@@H]1CCN1; Ac4c = NC1(C(=O)O)CCC1; Sar = CNCC(=O)O
Columns and labels:
[1] = target: GDP-bound HRAS wild-type protein (Homo sapiens, UniProt P01112); assay: Binding to HRAS by surface plasmon resonance (SPR), Single Cycle Kinetics; conditions: for HRAS/KRAS (ratio of KD value for HRAS to KD value for KRAS): SPR, GDP-bound HRAS wild-type protein vs GDP-bound KRAS wild-type protein
[2] = target: GDP-bound NRAS wild-type protein (Homo sapiens, UniProt P01111); assay: Binding to NRAS by surface plasmon resonance (SPR), Single Cycle Kinetics; conditions: for NRAS/KRAS (ratio of KD value for NRAS to KD value for KRAS): SPR, GDP-bound NRAS wild-type protein vs GDP-bound KRAS wild-type protein
[3] = target: GDP-bound KRAS wild-type protein (Homo sapiens, UniProt P01116); assay: Binding to KRAS by surface plasmon resonance (SPR), Single Cycle Kinetics; conditions: GDP-bound KRAS wild-type protein, read-out: KRAS KD
[4] = SPR Single Cycle Kinetics, 1:1 binding model

Chain of GDP-bound NRAS wild-type protein (P01111 whole entry): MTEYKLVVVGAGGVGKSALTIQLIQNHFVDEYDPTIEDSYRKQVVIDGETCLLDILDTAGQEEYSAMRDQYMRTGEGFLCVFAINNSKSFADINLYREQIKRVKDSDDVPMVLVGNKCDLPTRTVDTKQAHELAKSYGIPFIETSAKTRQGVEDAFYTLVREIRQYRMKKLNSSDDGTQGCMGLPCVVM
Chain of GDP-bound HRAS wild-type protein (P01112 whole entry): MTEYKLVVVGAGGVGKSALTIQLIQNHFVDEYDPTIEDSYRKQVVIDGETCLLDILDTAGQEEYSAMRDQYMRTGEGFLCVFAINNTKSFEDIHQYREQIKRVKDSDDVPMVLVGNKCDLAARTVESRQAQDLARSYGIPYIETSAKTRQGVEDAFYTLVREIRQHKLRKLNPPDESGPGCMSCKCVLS
Chain of GDP-bound KRAS wild-type protein (P01116 whole entry): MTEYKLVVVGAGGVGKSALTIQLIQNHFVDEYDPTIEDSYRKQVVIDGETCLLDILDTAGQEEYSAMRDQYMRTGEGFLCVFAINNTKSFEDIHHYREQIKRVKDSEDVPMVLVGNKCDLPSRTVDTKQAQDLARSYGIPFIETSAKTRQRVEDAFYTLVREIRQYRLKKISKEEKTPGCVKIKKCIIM

| Kd [3, 4] | Kd ([3]; SPR, Single Cycle Kinetics) | SMILES | HRAS/KRAS (ratio of KD value for HRAS to KD value for KRAS) [1] | NRAS/KRAS (ratio of KD value for NRAS to KD value for KRAS) [2] | HRAS/KRAS (ratio of KD value with respect to GDP-bound HRAS wild-type protein to KD value with respect to KRAS) ([1]; SPR KD ratio HRAS/KRAS, class symbols) | NRAS/KRAS (ratio of KD value with respect to GDP-bound NRAS wild-type protein to KD value with respect to KRAS) ([2]; SPR KD ratio NRAS/KRAS, class symbols) |
| --- | --- | --- | --- | --- | --- | --- |
| 800 nM |  | C=CCCN1C(=O)[C@H](CC=C)N(C)C(=O)CN(C)C(=O)[C@H]([C@@H](C)CC)NC(=O)[C@H](CC(C)C)N(C)C(=O)C[C@@H](C(=O)N2CCOCC2)N(C)C(=O)[C@H](C2CCCC2)N(C)C(=O)C2(CCCC2)NC(=O)[C@@H]2CCCN2C(=O)[C@H](CCc2ccc(C(F)(F)F)c(Cl)c2)NC(=O)CN(C)C(=O)[C@@H]1Cc1ccc(C)cc1 [PP0140] ([NMeL]I[Sar][NMeAllylGly][X30][Sar][hPhe(3-Cl-4-CF3)]P[Ac5c][NMeGly(cPent)][NMeD]-Morpholide; lactam N-11) | B (a compound having 3 or more and less than 10 is denoted as B) | C (A compound having a KD ratio of 0.1 or more and less than 3 is denoted as C) |  |  |
|  | 0.25 nM | C#CCN1CC(=O)N(C)[C@H]2C/C=C\CCN(C2=O)[C@@H](Cc2ccc(C(F)(F)F)cc2)C(=O)N(C)CC(=O)N[C@@H](CCc2cc(F)c(C(F)(F)F)c(F)c2)C(=O)N2C[C@H](OCC)C[C@H]2C(=O)NC2(CC(C)(C)C2)C(=O)N(C)[C@@H](C2CCCC2)C(=O)N(C)[C@H](C(=O)N(C)C)CC(=O)N(C)[C@@H](CCC)C(=O)N[C@@H]([C@@H](C)CC)C1=O [PP2103] | A (a compound having 10 or more and less than 20 is denoted as A) | A (a compound having 10 or more and less than 20 is denoted as A) |  |  |
|  | 0.73 nM | CCO[C@@H]1C[C@H]2C(=O)NC3(CCCC3)C(=O)N(C)[C@@H](C3CCCC3)C(=O)N(C)[C@H](C(=O)N3CCOCC3)CC(=O)N(C)[C@@H](COC)C(=O)N[C@@H]([C@@H](C)CC)C(=O)N(C)CC(=O)N(C)[C@H]3CCCCCN(C3=O)[C@@H](Cc3ccc(C(F)(F)F)cc3)C(=O)N(C)CC(=O)N[C@@H](CCc3cc(F)c(C(F)(F)F)c(F)c3)C(=O)N2C1 [PP0841] | B (a compound having 3 or more and less than 10 is denoted as B) | B (a compound having 3 or more and less than 10 is denoted as B) |  |  |
| 1.7 nM |  | CCCN1C(=O)CN(C)C(=O)[C@@H]2CCN2C(=O)[C@H]([C@@H](C)CC)NC(=O)[C@H](CC(C)C)N(C)C(=O)C[C@@H](C(=O)N2CCOCC2)NC(=O)[C@H](C2CCCC2)N(C)C(=O)C2(CCC2)NC(=O)[C@@H]2C[C@@H](OCC)CN2C(=O)[C@H](CCc2ccc(C(F)(F)F)c(Cl)c2)NC(=O)CN(C)C(=O)[C@@H]1Cc1ccc(C(F)(F)F)cc1 [PP0342] ([NMeL]I[Aze][Sar][NPrPhe(4-CF3)][Sar][hPhe(3-Cl-4-CF3)][Hyp](Et)[Ac4c][NMeGly(cPent)]D-Morpholide; lactam N-11) | B (a compound having 3 or more and less than 10 is denoted as B) | B (a compound having 3 or more and less than 10 is denoted as B) |  |  |
| 0.17 nM |  | CCCN(C)C(=O)[C@@H]1CC(=O)N(C)[C@@H](CC)C(=O)N[C@@H]([C@@H](C)CC)C(=O)N(C)CC(=O)N(C)[C@H]2C/C=C\CCN(C2=O)[C@@H](Cc2ccc(C(F)(F)F)cc2)C(=O)N(C)CC(=O)N[C@@H](CCc2cc(F)c(C(F)(F)F)c(F)c2)C(=O)N2C[C@H](OCC3CC3)C[C@H]2C(=O)NC2(CCC2)C(=O)N(C)[C@@H](C2CCCC2)C(=O)N1C [PP2913] |  |  | A (a compound having 10 or more and less than 20 is denoted as A) | A (a compound having 10 or more and less than 20 is denoted as A) |
| 0.12 nM |  | CCCN1C(=O)CN(C)C(=O)CNC(=O)[C@H]([C@@H](C)CC)NC(=O)[C@H](CC(C)C)N(C)C(=O)C[C@@H](C(=O)N2CCOCC2)N(C)C(=O)[C@H](C2CCCC2)N(C)C(=O)C2(CCC2)NC(=O)[C@@H]2C[C@@H](OCC)CN2C(=O)[C@H](CCc2ccc(C(F)(F)F)c(Cl)c2)NC(=O)CN(C)C(=O)[C@@H]1Cc1ccc(C(F)(F)F)cc1 [PP0397] ([NMeL]IG[Sar][NPrPhe(4-CF3)][Sar][hPhe(3-Cl-4-CF3)][Hyp](Et)[Ac4c][NMeGly(cPent)][NMeD]-Morpholide; lactam N-11) | C (A compound having a KD ratio of 0.1 or more and less than 3 is denoted as C) | C (A compound having a KD ratio of 0.1 or more and less than 3 is denoted as C) |  |  |
|  | 0.024 nM | CCO[C@@H]1C[C@H]2C(=O)NC3(CCC3)C(=O)N(C)[C@@H](C3CCCC3)C(=O)N(C)[C@H](C(=O)N(C)C)CC(=O)N(C)[C@@H](CC)C(=O)N[C@@H]([C@@H](C)CC)C(=O)N(C)CC(=O)N(C)[C@H]3CCCCN(C3=O)[C@@H](Cc3ccc(C(F)(F)F)cc3)C(=O)N(C)CC(=O)N[C@@H](CCc3ccc(Cl)c(Cl)c3)C(=O)N2C1 [PP0987] | C (A compound having a KD ratio of 0.1 or more and less than 3 is denoted as C) | C (A compound having a KD ratio of 0.1 or more and less than 3 is denoted as C) |  |  |

— US20240158446A1, “CYCLIC COMPOUND HAVING SELECTIVE INHIBITORY ACTION ON KRAS OVER HRAS AND NRAS” (CHUGAI SEIYAKU KABUSHIKI KAISHA, priority 2021, published 2024)
